Tested on: Caco-2 cell line
Test: Cytotoxicity MTS assay, Caco-2 cell line
Assay type: cell-based
Conditions: for OD490 Mean / OD490 Well 1 / OD490 Well 2 / OD490 Well 3: Caco-2 cell line; for IC50: MTS assay, 24 h exposure
Method in brief: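 Cells were seeded at 1000 per well, allowed 24 h, then exposed to compounds at final concentrations of 0.5 to 100 µM for 24 h, with 0.025% DMSO as blank. MTS reagent was added for 2 h at 37 °C and absorbance read at 490 nm. IC50 came from non-linear regression of viability against concentration.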

COC(=O)c1[nH]c(C2NC(=S)NC(C)=C2C(=O)c2ccccc2)c(C(=O)OC)c1C (stereo not shown) [D14]
OD490 Mean (0.5μM, first assay): 0.5996
OD490 Well 1 (0.5μM, first assay): 0.5553
OD490 Well 2 (0.5μM, first assay): 0.5560
OD490 Well 3 (0.5μM, first assay): 0.6875
OD490 Mean (0.5μM, second assay): 0.6725
OD490 Well 1 (0.5μM, second assay): 0.6506
OD490 Well 2 (0.5μM, second assay): 0.6879
OD490 Well 3 (0.5μM, second assay): 0.6791
OD490 Mean (0.5μM, third assay): 0.6452
OD490 Well 1 (0.5μM, third assay): 0.6120
OD490 Well 2 (0.5μM, third assay): 0.6285
OD490 Well 3 (0.5μM, third assay): 0.6952
OD490 Mean (1μM, second assay): 0.6718
OD490 Well 1 (1μM, second assay): 0.6251
OD490 Well 2 (1μM, second assay): 0.6916
OD490 Well 3 (1μM, second assay): 0.6987
OD490 Mean (1μM, third assay): 0.6246
OD490 Well 1 (1μM, third assay): 0.6324
OD490 Well 2 (1μM, third assay): 0.6014
OD490 Well 3 (1μM, third assay): 0.6401
OD490 Mean (10μM, first assay): 0.6223
OD490 Well 1 (10μM, first assay): 0.6178
OD490 Well 2 (10μM, first assay): 0.6082
OD490 Well 3 (10μM, first assay): 0.6409
OD490 Mean (10μM, second assay): 0.6139
OD490 Well 1 (10μM, second assay): 0.6136
OD490 Well 2 (10μM, second assay): 0.6117
OD490 Well 3 (10μM, second assay): 0.6164
OD490 Mean (10μM, third assay): 0.6241
OD490 Well 1 (10μM, third assay): 0.5987
OD490 Well 2 (10μM, third assay): 0.6312
OD490 Well 3 (10μM, third assay): 0.6424
OD490 Mean (25μM, first assay): 0.5939
OD490 Well 1 (25μM, first assay): 0.5396
OD490 Well 2 (25μM, first assay): 0.5578
OD490 Well 3 (25μM, first assay): 0.6844
OD490 Mean (25μM, second assay): 0.5279
OD490 Well 1 (25μM, second assay): 0.4988
OD490 Well 2 (25μM, second assay): 0.5384
OD490 Well 3 (25μM, second assay): 0.5466
OD490 Mean (25μM, third assay): 0.5570
OD490 Well 1 (25μM, third assay): 0.5324
OD490 Well 2 (25μM, third assay): 0.5784
OD490 Well 3 (25μM, third assay): 0.5601
OD490 Mean (50μM, first assay): 0.5128
OD490 Well 1 (50μM, first assay): 0.5310
OD490 Well 2 (50μM, first assay): 0.5192
OD490 Well 3 (50μM, first assay): 0.4883
OD490 Mean (50μM, second assay): 0.5200
OD490 Well 1 (50μM, second assay): 0.5229
OD490 Well 2 (50μM, second assay): 0.564
OD490 Well 3 (50μM, second assay): 0.4732
OD490 Mean (50μM, third assay): 0.4713
OD490 Well 1 (50μM, third assay): 0.4985
OD490 Well 2 (50μM, third assay): 0.4532
OD490 Well 3 (50μM, third assay): 0.4621
OD490 Mean (100μM, first assay): 0.4642
OD490 Well 1 (100μM, first assay): 0.4537
OD490 Well 2 (100μM, first assay): 0.4965
OD490 Well 3 (100μM, first assay): 0.4424
OD490 Mean (100μM, second assay): 0.4817
OD490 Well 1 (100μM, second assay): 0.4326
OD490 Well 2 (100μM, second assay): 0.5246
OD490 Well 3 (100μM, second assay): 0.4878
OD490 Mean (100μM, third assay): 0.4653
OD490 Well 1 (100μM, third assay): 0.4632
OD490 Well 2 (100μM, third assay): 0.4397
OD490 Well 3 (100μM, third assay): 0.4930
IC50: 103 µM

CCOC(=O)c1c(C2NC(=O)NC(C)=C2C(=O)Nc2ccccc2)[nH]c(C(=O)OC)c1C (stereo not shown) [D10]
OD490 Mean (0.5μM, first assay): 0.4742
OD490 Well 1 (0.5μM, first assay): 0.4527
OD490 Well 2 (0.5μM, first assay): 0.4966
OD490 Well 3 (0.5μM, first assay): 0.4734
OD490 Mean (0.5μM, second assay): 0.5530
OD490 Well 1 (0.5μM, second assay): 0.531
OD490 Well 2 (0.5μM, second assay): 0.6234
OD490 Well 3 (0.5μM, second assay): 0.5045
OD490 Mean (0.5μM, third assay): 0.6289
OD490 Well 1 (0.5μM, third assay): 0.6132
OD490 Well 2 (0.5μM, third assay): 0.6414
OD490 Well 3 (0.5μM, third assay): 0.6321
OD490 Mean (1μM, first assay): 0.5016
OD490 Well 1 (1μM, first assay): 0.5182
OD490 Well 2 (1μM, first assay): 0.4910
OD490 Well 3 (1μM, first assay): 0.4957
OD490 Mean (1μM, second assay): 0.6121
OD490 Well 1 (1μM, second assay): 0.5315
OD490 Well 2 (1μM, second assay): 0.6788
OD490 Well 3 (1μM, second assay): 0.626
OD490 Mean (1μM, third assay): 0.6367
OD490 Well 1 (1μM, third assay): 0.6031
OD490 Well 2 (1μM, third assay): 0.6621
OD490 Well 3 (1μM, third assay): 0.6449
OD490 Mean (10μM, first assay): 0.4933
OD490 Well 1 (10μM, first assay): 0.4499
OD490 Well 2 (10μM, first assay): 0.5248
OD490 Well 3 (10μM, first assay): 0.5052
OD490 Mean (10μM, second assay): 0.5658
OD490 Well 1 (10μM, second assay): 0.6
OD490 Well 2 (10μM, second assay): 0.624
OD490 Well 3 (10μM, second assay): 0.4735
OD490 Mean (10μM, third assay): 0.6081
OD490 Well 1 (10μM, third assay): 0.6012
OD490 Well 2 (10μM, third assay): 0.6321
OD490 Well 3 (10μM, third assay): 0.5911
OD490 Mean (25μM, first assay): 0.4730
OD490 Well 1 (25μM, first assay): 0.3491
OD490 Well 2 (25μM, first assay): 0.5643
OD490 Well 3 (25μM, first assay): 0.5057
OD490 Mean (25μM, second assay): 0.5406
OD490 Well 1 (25μM, second assay): 0.5132
OD490 Well 2 (25μM, second assay): 0.5889
OD490 Well 3 (25μM, second assay): 0.5197
OD490 Mean (25μM, third assay): 0.5321
OD490 Well 1 (25μM, third assay): 0.5365
OD490 Well 2 (25μM, third assay): 0.4987
OD490 Well 3 (25μM, third assay): 0.5612
OD490 Mean (50μM, first assay): 0.4403
OD490 Well 1 (50μM, first assay): 0.3579
OD490 Well 2 (50μM, first assay): 0.5436
OD490 Well 3 (50μM, first assay): 0.4193
OD490 Mean (50μM, second assay): 0.4763
OD490 Well 1 (50μM, second assay): 0.4113
OD490 Well 2 (50μM, second assay): 0.5208
OD490 Well 3 (50μM, second assay): 0.4969
OD490 Mean (50μM, third assay): 0.4757
OD490 Well 1 (50μM, third assay): 0.4698
OD490 Well 2 (50μM, third assay): 0.4875
OD490 Well 3 (50μM, third assay): 0.4698
OD490 Mean (100μM, first assay): 0.4342
OD490 Well 1 (100μM, first assay): 0.3369
OD490 Well 2 (100μM, first assay): 0.4685
OD490 Well 3 (100μM, first assay): 0.4971
OD490 Mean (100μM, second assay): 0.4596
OD490 Well 1 (100μM, second assay): 0.4737
OD490 Well 2 (100μM, second assay): 0.4587
OD490 Well 3 (100μM, second assay): 0.4463
OD490 Mean (100μM, third assay): 0.4349
OD490 Well 1 (100μM, third assay): 0.4356
OD490 Well 2 (100μM, third assay): 0.4169
OD490 Well 3 (100μM, third assay): 0.4521
IC50: 108 µM
